Data set [1] can be described thus: Selectivity toward competing biological species with and without H2S. From the text:
The selectivity of Cu-ATSM-FITC(5) was investigated against a variety of potentially competing biological species in the presence and absence of H2S (FIG. 6D).

The test system of data set [2] is human hepatoma cells (HepG2). The experiment in a line: MTT cytotoxicity analysis, HepG2. Format: cell-based. The procedure:
(§1) The cytotoxicity of Cu-ATSM-FITC(5) was evaluated through 3-(4,5-dimethyl-2-thiazolyl)-2,5-diphenyltetrazolium bromide (MTT; sigma-aldrich) analysis. Human cervical cancer cells (HeLa), human hepatoma cells (HepG2), and human embryonic kidney cells (HEK293) were prepared in 96-well plates at a density of 10,000 cells per well. As compared to the control group treated with PBS alone, they were treated with Cu-ATSM-FITC (5) at increasing concentrations of 1, 10, and 25 μM. Afterwards, they were incubated for 1, 4, and 24 hours (37° C., 5% CO2), respectively. For each treatment time, each well was added with 10 μL of MTT (5 mg/mL in PBS) solution and incubated for 3 hours. The supernatant was carefully aspirated, and the purple insoluble formazan crystals in the wells were dissolved using DMSO for 30 minutes. Absorbance was measured at 550 nm using a spectrophotometer (SPECTROstar Nano, BMG Labtech, Ortenberg, Germany). CuS was also performed four times in a similar manner by using HeLa, HEK293, HepG2, and human brain glioblastoma (U87MG) cells.

For data set [3], the system named is H2S in HeLa cells. Description: Fluorescence imaging of exogenous and endogenous H2S in live HeLa cells. Format: cell-based, human. The source says: Next, we investigated the usefulness of Cu-ATSM-FITC(5) for monitoring H2S levels in living cells (FIG. 14).
The test system of data set [4] is Human cervical cancer cells (HeLa). Description: MTT cytotoxicity analysis, HeLa. The format is cell-based. The procedure: as §1
The test system of data set [5] is human embryonic kidney cells (HEK293). Description: MTT cytotoxicity analysis, HEK293. Format: cell-based. The procedure:
as §1

The nature of data set [6]: Fluorescence response of probe to NaHS (sensitivity, reaction rate, detection limit). The procedure: To confirm the sensitivity, Cu-ATSM-FITC(5) was incubated with a wide range of NaHS concentrations (0-100 μM) at 37° C. and the fluorescence intensity was measured (FIG. 6B). […] When reacted with 50 μM NaHS solution, the fluorescence intensity of Cu-ATSM-FITC(5) reached a plateau within 30 seconds (FIG. 6C). In contrast, the reactivity of Cu-ATSM-FITC(5) toward L-cysteine (1 mM) and glutathione (GSH) (10 mM) was minimal, as compared to H2S, even though their concentrations were at least 20 times higher than H2S. The detection limit of Cu-ATSM-FITC(5) was calculated to be 0.20 μM using the regression equation (FIG. 8). The quantum yield was confirmed to be 0.33 according to the equation, as compared to the fluorescein standard value (FIG. 9).

Data set [7] can be described thus: Optical properties (UV-Vis absorbance, fluorescence emission). The format is physicochemical. The procedure: The optical properties of the free ligand ATSM-FITC (4) were evaluated. […] When H2S sequestered Cu(II) ions from the copper complex (5) and precipitated CuS, the ATSM-FITC ligand was released and fluorescence was emitted (FIG. 7).
Data set [8] has as its system mouse brain tissues. The note with it: up to 7 days after injection of high-dose 500 μg; CuS precipitated.
Protocol: Animals were anesthetized by using isoflurane, and injected with 100 μg of Cu-ATSM-FITC(5) in 100 μL of 10% DMSO/PBS, and 500 μg of Cu-ATSM-FITC(5) in 100 μL of 40% DMSO/PBS, respectively, through tail vein injection. The animals were perfused transcardially with saline 1, 3, and 7 days after the injection. The brains were dissected, fixed in 4% paraformaldehyde, and embedded in paraffin to make blocks. Serial coronal sections in paraffin with the thickness of 7 μm were obtained. The sections were stained with H&E by using a staining kit (BBC ClearView, BBC Eosin Y Alcoholic). The stained brain tissues were photographed under a Carl Ziess microscope at 400× magnification.
Data set [9] in a line: Measurement of quantum yield versus fluorescein standard. The note with it: compared to the fluorescein standard value. The format is physicochemical. As for the experimental part:
The background levels of methanol used in the experiment were measured by using a SpectraMaxi-3 spectraphotometer, and Cu-ATSM-FITC(5) was measured at concentrations of 0.02, 0.04, 0.06, 0.08, and 0.1 μM. A fluorescein standard line graph was obtained according to the concentration and intensity of Cu-ATSM-FITC(5). The quantum yield was calculated according to the following equation: Φ=ΦST (Grad x/Grad ST) (η×2/ηST 2). Here, the subscripts ST and X represent the measured values of the standard and test solutions, respectively. In addition, Φ represents the quantum yield and η represents the refractive index of the solution.

Data set [10] is described as follows: Fluorescence stability and reactivity at various pH. The format is physicochemical. The note with it: pH 5 to 10.
Data set [11] relates to H2S concentration in brain tissues. Description: Quantification of H2S in brain by methylene blue method. Format: in vivo, mice. As for the experimental part: The methylene blue method was used to directly measure H2S concentration in brain tissues. Briefly, PET imaging was performed, brains were harvested, weighed, and homogenized in liquid N2. An ice-cold PBS solution in a volume equivalent to the weight of the homogenate (w/v, approximately 260 to 300 mg) was added, followed by vortex for 3 min and centrifugation (14,000 rpm, 5 min, 4° C.). Then, 100 μL of the supernatant was incubated together with 100 μL of 1% zinc acetate dihydrate at 37° C. for 10 minutes to immobilize H2S. 100 μL of 0.1 M sodium tetraborate buffer (pH 9) and 200 μL of 20 mM N, N-dimethyl-p-phenylenediamine sulfate were added to 7.2 M HCl, and 200 μL of 30 mM iron (III) chloride was added to 1.2 M HCl, and the mixture was incubated at 37° C. for 15 min to form methylene blue dyes. The mixture was centrifuged again (14,000 rpm, 5 minutes, 4° C.). 100 μL of supernatant was transferred in triplicate to 96-well plates, and absorbance was recorded spectrophotometrically at 670 nm. The H2S concentration was calculated by using a standard curve obtained by plotting absorbance (A670) versus NaHS concentration (0 to 30 μM). For quantification of H2S in the left and right hemispheres of the brains, PET imaging was performed, and only the cerebral hemispheres were harvested and processed separately. […]

A short description of data set [12]: Biodistribution in normal BALB/c mice (γ-counter). The format is in vivo. The note with it: 4 hours after administration. The procedure:
BALB/c mice (male, 9 weeks old) were used to investigate the systemic distribution and clearance rate of ^64Cu-ATSM-FITC (6). ^64Cu-ATSM-FITC (6) with a radioactivity of 0.56 to 0.74 MBq in a saline solution (5% DMSO, 200 μL) was injected into mice through the tail vein under anesthesia. […] Blood was drawn, and organs comprising heart, lung, muscle, fat, bone, spleen, kidney, liver, intestine, and brain were harvested, weighed, and analyzed by using a γ-counter (Wallac Wizard 1480, PerkinElmer, France). Radioactivity was calculated as percentage of injected dose per gram (% ID/g).
The distribution of ^64Cu-ATSM-aniline in the body was confirmed by using the same method as described in Experimental Methods 5 and 7 above.

In data set [13] the test system is human brain glioblastoma (U87MG) cells. The experiment in a line: MTT cytotoxicity analysis, U87MG. The format is cell-based. The procedure: as §1

`CNC([S-])=NN=C(C)C(C)=NN=C([S-])Nc1ccc(-c2c3ccc(=O)cc-3oc3cc(O)ccc23)c(C(=O)O)c1.[Cu+2]` [Cu-ATSM-FITC(5), Copper(II) Complex of 2-(6-hydroxy-3-oxo-3H-xanthen-9-yl)-5-((E)-2-((E)-3-(2-(methylcarbamothioyl)hydrazono)butan-2-ylidene)hydrazinecarbothioamido)benzoic Acid]: the “fluorescence intensity with competing species plus NaHS” value in [1] (NaHS 50 μM added with other biologically abundant species) is listed as “full fluorescence intensity was observed without interference”. Further, the “reactivity (fluorescence signals) with other species” value in data set [1] (biothiols, inorganic sulfur species, reducing agents, nucleophiles, ROS/RNS, absence of H2S) is reported as “did not show reactivity”. In addition, the cytotoxicity entry in data set [2] and in [5] was “No cytotoxicity was observed” in each case. The “detection of endogenous H2S induced by L-cysteine” value in [3] (L-cysteine 100 μM) was “successfully detected the increase in endogenous H2S concentration”. For the same compound, in data set [3] (NaHS 50 and 100 μM), the “green fluorescence intensity in HeLa cells on addition of NaHS” value is reported as “linear rise in green fluorescence intensity”. In addition, the “fluorescence signal in HeLa cells” value in data set [3] (probe 25 μM, no added H2S) was “faint fluorescence signal”. Further, the “survival rate of HeLa cells” value in data set [4] (1, 10, and 25 μM, 24 hours of incubation) is “exceeded 85%”. In addition, the “time for fluorescence intensity to reach a plateau” value in [6] (50 μM NaHS solution) was at most 30 s. For the same compound, the “fluorescence enhancement at 524 nm” value in [6] (100 μM NaHS compared to concentration 0, 37° C.) is given as “up to 3500 fold”. Moreover, the “reactivity toward L-cysteine and glutathione (GSH) compared to H2S” value in data set [6] (L-cysteine 1 mM, GSH 10 mM) is “minimal”. Moreover, the detection limit in data set [6] (calculated using the regression equation, H2S) was 0.20 µM. For the same compound, in [7] (without H2S), the “fluorescence signal of the complex” value is on record as “did not show a detectable fluorescence signal”. Further, the “toxicity in mouse brain tissues (H&E staining)” value in data set [8] is reported as “low toxicity”. The quantum yield in data set [9] is 0.33. In addition, the “stability and reactivity over physiological pH range” value in [10] is “high stability and reactivity”.
On to `C#CCC(N)C(=O)O` (racemic) [DL-propargylglycine, reference compound], for which, in [3] (450 μM, HeLa cells probed with Cu-ATSM-FITC(5)), the “green fluorescence due to endogenous H2S after CSE blockade” value was “completely reduced”.
Consider `Cl.NOCC(=O)O.NOCC(=O)O` [AOAA], for which the “reduction of H2S concentration in the brain compared to controls” value in data set [11] (10 mg/kg intraperitoneal, mice) was 32%. For the same compound, in data set [11] (AOAA-treated mice), the “H2S concentration in the brain” value was 2.1±0.5 μg/g brain.
As to `CNC([S-])=NN=C(C)C(C)=NN=C([S-])Nc1ccc(N(C)C)cc1.[64Cu+2]` [^64Cu-ATSM-aniline, reference compound], in [12], the “distribution in the brain” value was “very low”; the “organs of widest distribution” value was “lungs and liver”.
In the case of `CNC(=S)N/N=C(C)/C(C)=N/NC(=S)Nc1ccc(-c2c3ccc(=O)cc-3oc3cc(O)ccc23)c(C(=O)O)c1` [ATSM-FITC (4), 2-(6-hydroxy-3-oxo-3H-xanthen-9-yl)-5-((E)-2-((E)-3-(2-(methylcarbamothioyl)hydrazono)butan-2-ylidene)hydrazinecarbothioamido)benzoic Acid], in data set [7] (UV-Vis spectroscopy), the absorbance band amounted to 494 nm. This compound also had a maximum fluorescence emission in [7] (excitation at 480 nm) of 524 nm.
Consider `[S]=[Cu]` [CuS, copper sulfide], for which the cytotoxicity result in data set [2], in data set [4] (HeLa), in data set [5] and in [13] was “no cytotoxicity was found” in each case.

The values above are taken from patent US20240390529A1, “DUAL-MODE PROBE FOR DETECTING HYDROGEN SULFIDE AND USE THEREOF” (KYUNGPOOK NATIONAL UNIVERSITY INDUSTRY-ACADEMIC COOPERATION …, priority 2022, published 2024).
